{"source": "patent US5747545A", "about": "“Method of preventing NMDA receptor complex-mediated Neuronal damage” (priority 1995, dated 1998)", "key": {"[1]": {"tested_on": "cortical neurons (NMDA receptor-mediated neurotoxicity)", "assay": "Neurotoxicity assay: survival of cortical neurons after DTT and NMDA exposure", "type": "cell-based, rat", "conditions": "NTG 100 μM (30 μM NMDA, 30 min); SNP 400 μM (75 μM NMDA, 5 min); FIGS. 6A and 6B", "description": "To test compounds for their ability to prevent neurotoxicity, neuronal cell death may be assayed as follows. […] The candidate compound is tested by addition (e.g., in a series of concentrations ranging from 0.1 nM-10 mM) after DTT treatment but before NMDA treatment. The candidate compound can be added for minutes, hours, or even days prior to its washout period. […] Neuronal cultures are scored for cell survival after this overnight incubation because NMDA toxicity is often delayed by several hours following NMDA exposure.\nUsing the neurotoxicity assay described above, the compounds sodium nitroprusside and nitroglycerin were tested individually for their ability to increase survival of neonatal cortical neurons.\nAs shown in FIG. 6A-6D, surviving neurons are expressed as the percentage of viable neurons in the control culture dishes in the same experiment. The concentrations of drugs were as follows: APV (2 mM), NTG (100 μM), SNP (400 μM), DTT (0.5-2 mM), and reduced Hb (500 μM). […] Values are mean ±SEM for experiments run in triplicate on sibling cultures on separate days (total of 32 experiments). Astericks indicate significant difference compared with the value for DTT-NMDA exposure, P<0.05 (ANOVA followed by Scheffe multiple comparison of means."}, "[2]": {"assay": "Development of tolerance to systemic effects of NTG in humans", "type": "in vivo, human", "description": "Therefore, it is advantageous to induce NTG tolerance by gradually increasing dosage, thus increasing the neuronal protective effect.\nTo illustrate the development of systemic tolerance, a human patient could be made tolerant by intravenous administration of NTG within 18-24 hr of continuous infusion (see for example, J. E. Shaffer, B. -A. Han, W. H. Chern, and F. W. Lee, J. Pharmacol. Exper. Therap., 1992;260:286-293; D. C. May, J. J. Popma, Wh. H. Black, S. Scahaffer, H. R. Lee, B. D. Levine, and L. D. Hillis, New Engl. J. Med. 1987;317:805-809; C. M. Newman, J. B. Warren, G. W. Taylor, A. R. Boobis, and D. S. Davis, Br. J. Pharmacol. 1990;99:825-829). Oral, nasal spray, or sublingual NTG could also be used to induce systemic tolerance.\nAnother, perhaps easier, method for making humans tolerant within 24 hours to the systemic effects of NTG is to administer nitroglycerin as nitropaste or as a transdermal patch for transdermal delivery, for instance, as follows: 1/2inch every 4 to 6 hours, while monitoring the blood pressure (to see when hypotension subsides from the applied nitropaste). As tolerated (e.g., in the absence of sudden drops in blood pressure), the dose of nitropaste is increased to up to 3 inches with each administration. Under these conditions, tolerance (as evidenced by no effect on systemic blood pressure) will develop in 18-24 hours or less. […]"}}}
{"smiles": "O=[N+]([O-])OCC(CO[N+](=O)[O-])O[N+](=O)[O-]", "note": "[NTG, 1,2,3-propanetriol trinitrate]", "values": [{"measurement": "Effect on neuronal injury engendered by NMDA after exposure to DTT", "setting": "[1]", "result": "ameliorated neuronal injury"}, {"measurement": "Time to systemic tolerance, nitropaste or transdermal patch", "setting": "[2]; no effect on systemic blood pressure, nitropaste dose escalated up to 3 inches, \"will develop in 18-24 hours or less\"", "result": "18 to 24", "unit": "h"}, {"measurement": "Tolerance to undesired systemic effects", "setting": "[2]; systemic effects e.g. blood pressure drop, coronary artery dilation or headache", "result": "patients can be made tolerant to the undesired systemic effects of NTG"}]}
